Patent US9074014B2 (Ipsen Pharma S.A.S., priority 2008, dated 2015)
Where a SMILES comes first, the peptide text is derived from it. [ ]: non-standard residue; d: D form. Nle = CCCC[C@H](N)C(=O)O; Ac5c = NC1(C(=O)O)CCCC1; Aib = CC(C)(N)C(=O)O

What was measured:
[1] = Human plasma half-life assay; format: in vitro ADME; conditions: human plasma, 37° C., LC-MS; for half-life at 0.1 mg/ml: read-out: Human Plasma T½ (converted)
[2] = Rat plasma half-life assay; format: in vitro ADME; conditions: rat plasma, 37° C., LC-MS; for half-life at 0.1 mg/ml: read-out: Rat Plasma T½ (converted)

Structure (SMILES)	Human Plasma T½ [1] [h]	Rat Plasma T½ [2] [h]	half-life at 0.1 mg/ml [1] [h]	half-life at 0.1 mg/ml [2] [h]
CCCC[C@H](NC(=O)[C@H](C)NC(=O)[C@@H](NC(=O)C1(NC(=O)[C@H](Cc2ccc(O)cc2)NC(=O)[C@H](CC(=O)O)NC(=O)[C@H](CO)NC(=O)[C@@H](NC(=O)[C@H](Cc2ccccc2)NC(=O)[C@@H](NC(=O)CNC(=O)[C@H](CCC(=O)O)NC(=O)C(C)(C)NC(=O)[C@@H](N)Cc2ccc(O)cc2)[C@@H](C)O)[C@@H](C)CC)CCCC1)[C@@H](C)CC)C(=O)N[C@@H](CC(=O)O)C(=O)N[C@@H](CCCCN)C(=O)N[C@H](C(=O)N[C@@H](Cc1c[nH]cn1)C(=O)N[C@@H](CCC(N)=O)C(=O)N[C@@H](CCC(N)=O)C(=O)N[C@@H](CC(=O)O)C(=O)N[C@@H](Cc1ccccc1)C(=O)N[C@H](C(=O)N[C@@H](CC(N)=O)C(=O)N[C@@H](Cc1c[nH]c2ccccc12)C(=O)N[C@@H](CC(C)C)C(=O)N[C@@H](CC(C)C)C(=O)N[C@@H](C)C(=O)N[C@@H](CCC(N)=O)C(=O)N[C@@H](CCCCN)C(N)=O)C(C)C)[C@@H](C)CC [Example 50, (Aib^2, A5c^11, Nle^14)hGIP(1-30)-NH2] (H-Y[Aib]EGTFISDY[Ac5c]IA[Nle]DKIHQQDFVNWLLAQK-NH2; N-terminus assumed)	48.1	>54		
CC[C@H](C)[C@H](NC(=O)[C@H](CO)NC(=O)[C@H](Cc1ccc(O)cc1)NC(=O)[C@H](CC(=O)O)NC(=O)[C@H](CO)NC(=O)C1(NC(=O)[C@H](Cc2ccccc2)NC(=O)[C@@H](NC(=O)CNC(=O)[C@H](CCC(=O)O)NC(=O)C(C)(C)NC(=O)[C@@H](N)Cc2ccc(O)cc2)[C@@H](C)O)CCCCC1)C(=O)N[C@@H](C)C(=O)NC1(C(=O)N[C@@H](CC(=O)O)C(=O)N[C@@H](CCCCN)C(=O)N[C@H](C(=O)N[C@@H](Cc2c[nH]cn2)C(=O)N[C@@H](CCC(N)=O)C(=O)N[C@@H](CCC(N)=O)C(=O)N[C@@H](CC(=O)O)C(=O)N[C@@H](Cc2ccccc2)C(=O)N[C@H](C(=O)N[C@@H](CC(N)=O)C(=O)N[C@@H](Cc2c[nH]c3ccccc23)C(=O)N[C@@H](CC(C)C)C(=O)N[C@@H](CC(C)C)C(=O)N[C@@H](C)C(=O)N[C@@H](CCC(N)=O)C(=O)N[C@@H](CCCCN)C(=O)NCC(=O)N[C@@H](CCCCN)C(=O)N[C@@H](CCCCN)C(=O)N[C@@H](CC(N)=O)C(=O)N[C@@H](CC(=O)O)C(=O)N[C@@H](Cc2c[nH]c3ccccc23)C(=O)N[C@@H](CCCCN)C(=O)N[C@@H](Cc2c[nH]cn2)C(=O)N[C@@H](CC(N)=O)C(=O)N[C@H](C(=O)N[C@H](C(=O)N[C@@H](CCC(N)=O)C(=O)O)[C@@H](C)O)[C@@H](C)CC)C(C)C)[C@@H](C)CC)CCCCC1 [Example 51, (Aib^2, A6c^7, 14)hGIP(1-42)-OH]			33.8	12.7
CC[C@H](C)[C@H](NC(=O)[C@H](CO)NC(=O)[C@H](Cc1ccc(O)cc1)NC(=O)[C@H](CC(=O)O)NC(=O)[C@H](CO)NC(=O)C1(NC(=O)[C@H](Cc2ccccc2)NC(=O)[C@@H](NC(=O)CNC(=O)[C@H](CCC(=O)O)NC(=O)C(C)(C)NC(=O)[C@@H](N)Cc2ccc(O)cc2)[C@@H](C)O)CCCCC1)C(=O)N[C@@H](C)C(=O)N[C@@H](CCSC)C(=O)N[C@@H](CC(=O)O)C(=O)N[C@@H](CCCCN)C(=O)N[C@H](C(=O)N[C@@H](Cc1c[nH]cn1)C(=O)N[C@@H](CCC(N)=O)C(=O)N[C@@H](CCC(N)=O)C(=O)N[C@@H](CC(=O)O)C(=O)N[C@@H](Cc1ccccc1)C(=O)N[C@H](C(=O)N[C@@H](CC(N)=O)C(=O)N[C@@H](Cc1c[nH]c2ccccc12)C(=O)N[C@@H](CC(C)C)C(=O)N[C@@H](CC(C)C)C(=O)N[C@@H](C)C(=O)N[C@@H](CCC(N)=O)C(=O)N[C@@H](CCCCN)C(N)=O)C(C)C)[C@@H](C)CC [Example 52, (Aib^2, A6c^7)hGIP(1-30)-NH2]			14	28.2
CCCC[C@H](NC(=O)C(C)(C)NC(=O)[C@@H](NC(=O)[C@H](CO)NC(=O)[C@H](Cc1ccc(O)cc1)NC(=O)[C@H](CC(=O)O)NC(=O)[C@H](CO)NC(=O)[C@@H](NC(=O)[C@H](Cc1ccccc1)NC(=O)[C@@H](NC(=O)CNC(=O)[C@@H]1CC(O)CN1C(=O)[C@H](C)NC(=O)[C@@H](N)Cc1ccc(O)cc1)[C@@H](C)O)[C@@H](C)CC)[C@@H](C)CC)C(=O)N[C@@H](CC(=O)O)C(=O)N[C@@H](CCCCN)C(=O)N[C@H](C(=O)N[C@@H](Cc1c[nH]cn1)C(=O)N[C@@H](CCC(N)=O)C(=O)N[C@@H](CCC(N)=O)C(=O)N[C@@H](CC(=O)O)C(=O)N[C@@H](Cc1ccccc1)C(=O)N[C@H](C(=O)N[C@@H](CC(N)=O)C(=O)N[C@@H](Cc1c[nH]c2ccccc12)C(=O)N[C@@H](CC(C)C)C(=O)N[C@@H](CC(C)C)C(=O)N[C@@H](C)C(=O)N[C@@H](CCC(N)=O)C(=O)N[C@@H](CCCCN)C(=O)NCC(=O)N[C@@H](CCCCN)C(=O)N[C@@H](CCCCN)C(=O)N[C@@H](CC(N)=O)C(=O)N[C@@H](CC(=O)O)C(=O)N[C@@H](Cc1c[nH]c2ccccc12)C(=O)N[C@@H](CCCCN)C(=O)N[C@@H](Cc1c[nH]cn1)C(=O)N[C@@H](CC(N)=O)C(=O)N[C@H](C(=O)N[C@H](C(=O)N[C@@H](CCC(N)=O)C(=O)O)[C@@H](C)O)[C@@H](C)CC)C(C)C)[C@@H](C)CC (some centres unmarked) [Example 68, (4Hyp^3, Aib^13, Nle^14)hGIP(1-42)-OH]			> 48	1.9
CCCC[C@H](NC(=O)C(C)(C)NC(=O)[C@@H](NC(=O)[C@H](CO)NC(=O)[C@H](Cc1ccc(O)cc1)NC(=O)[C@H](CC(=O)O)NC(=O)[C@H](CO)NC(=O)[C@@H](NC(=O)[C@H](Cc1ccccc1)NC(=O)[C@@H](NC(=O)CNC(=O)[C@@H]1Cc2ccccc2CN1C(=O)[C@H](C)NC(=O)[C@@H](N)Cc1ccc(O)cc1)[C@@H](C)O)[C@@H](C)CC)[C@@H](C)CC)C(=O)N[C@@H](CC(=O)O)C(=O)N[C@@H](CCCCN)C(=O)N[C@H](C(=O)N[C@@H](Cc1c[nH]cn1)C(=O)N[C@@H](CCC(N)=O)C(=O)N[C@@H](CCC(N)=O)C(=O)N[C@@H](CC(=O)O)C(=O)N[C@@H](Cc1ccccc1)C(=O)N[C@H](C(=O)N[C@@H](CC(N)=O)C(=O)N[C@@H](Cc1c[nH]c2ccccc12)C(=O)N[C@@H](CC(C)C)C(=O)N[C@@H](CC(C)C)C(=O)N[C@@H](C)C(=O)N[C@@H](CCC(N)=O)C(=O)N[C@@H](CCCCN)C(=O)NCC(=O)N[C@@H](CCCCN)C(=O)N[C@@H](CCCCN)C(=O)N[C@@H](CC(N)=O)C(=O)N[C@@H](CC(=O)O)C(=O)N[C@@H](Cc1c[nH]c2ccccc12)C(=O)N[C@@H](CCCCN)C(=O)N[C@@H](Cc1c[nH]cn1)C(=O)N[C@@H](CC(N)=O)C(=O)N[C@H](C(=O)N[C@H](C(=O)N[C@@H](CCC(N)=O)C(=O)O)[C@@H](C)O)[C@@H](C)CC)C(C)C)[C@@H](C)CC [Example 69, (Tic^3, Aib^13, Nle^14)hGIP(1-42)-OH]			36.9	1.8
CCCC[C@H](NC(=O)C(C)(C)NC(=O)[C@@H](NC(=O)[C@H](CO)NC(=O)[C@H](Cc1ccc(O)cc1)NC(=O)[C@H](CC(=O)O)NC(=O)[C@H](CO)NC(=O)[C@@H](NC(=O)[C@H](Cc1ccccc1)NC(=O)[C@@H](NC(=O)CNC(=O)[C@@H]1C(O)CCN1C(=O)[C@H](C)NC(=O)[C@@H](N)Cc1ccc(O)cc1)[C@@H](C)O)[C@@H](C)CC)[C@@H](C)CC)C(=O)N[C@@H](CC(=O)O)C(=O)N[C@@H](CCCCN)C(=O)N[C@H](C(=O)N[C@@H](Cc1c[nH]cn1)C(=O)N[C@@H](CCC(N)=O)C(=O)N[C@@H](CCC(N)=O)C(=O)N[C@@H](CC(=O)O)C(=O)N[C@@H](Cc1ccccc1)C(=O)N[C@H](C(=O)N[C@@H](CC(N)=O)C(=O)N[C@@H](Cc1c[nH]c2ccccc12)C(=O)N[C@@H](CC(C)C)C(=O)N[C@@H](CC(C)C)C(=O)N[C@@H](C)C(=O)N[C@@H](CCC(N)=O)C(=O)N[C@@H](CCCCN)C(=O)NCC(=O)N[C@@H](CCCCN)C(=O)N[C@@H](CCCCN)C(=O)N[C@@H](CC(N)=O)C(=O)N[C@@H](CC(=O)O)C(=O)N[C@@H](Cc1c[nH]c2ccccc12)C(=O)N[C@@H](CCCCN)C(=O)N[C@@H](Cc1c[nH]cn1)C(=O)N[C@@H](CC(N)=O)C(=O)N[C@H](C(=O)N[C@H](C(=O)N[C@@H](CCC(N)=O)C(=O)O)[C@@H](C)O)[C@@H](C)CC)C(C)C)[C@@H](C)CC (some centres unmarked) [Example 70, (3Hyp^3, Aib^13, Nle^14)hGIP(1-42)-OH]			> 33	1.5
CC[C@H](C)[C@H](NC(=O)[C@H](CO)NC(=O)[C@H](Cc1ccc(O)cc1)NC(=O)[C@H](CC(=O)O)NC(=O)[C@H](CO)NC(=O)[C@@H](NC(=O)[C@H](Cc1ccccc1)NC(=O)[C@@H](NC(=O)CNC(=O)[C@@H]1Cc2ccccc2CN1C(=O)[C@H](C)NC(=O)[C@@H](N)Cc1ccc(O)cc1)[C@@H](C)O)[C@@H](C)CC)C(=O)N[C@@H](C)C(=O)NC1(C(=O)N[C@@H](CC(=O)O)C(=O)N[C@@H](CCCCN)C(=O)N[C@H](C(=O)N[C@@H](Cc2c[nH]cn2)C(=O)N[C@@H](CCC(N)=O)C(=O)N[C@@H](CCC(N)=O)C(=O)N[C@@H](CC(=O)O)C(=O)N[C@@H](Cc2ccccc2)C(=O)N[C@H](C(=O)N[C@@H](CC(N)=O)C(=O)N[C@@H](Cc2c[nH]c3ccccc23)C(=O)N[C@@H](CC(C)C)C(=O)N[C@@H](CC(C)C)C(=O)N[C@@H](C)C(=O)N[C@@H](CCC(N)=O)C(=O)N[C@@H](CCCCN)C(=O)NCC(=O)N[C@@H](CCCCN)C(=O)N[C@@H](CCCCN)C(=O)N[C@@H](CC(N)=O)C(=O)N[C@@H](CC(=O)O)C(=O)N[C@@H](Cc2c[nH]c3ccccc23)C(=O)N[C@@H](CCCCN)C(=O)N[C@@H](Cc2c[nH]cn2)C(=O)N[C@@H](CC(N)=O)C(=O)N[C@H](C(=O)N[C@H](C(=O)N[C@@H](CCC(N)=O)C(=O)O)[C@@H](C)O)[C@@H](C)CC)C(C)C)[C@@H](C)CC)CCCCC1 [Example 71, (Tic^3, A6c^14)hGIP(1-42)-OH]			> 31	4.8
